According to patent US6451797B1, “Muscarinic antagonists” (priority 1998, dated 2002):
Structures can show the parent of a compound that is named as a salt.

| Structure (SMILES) | melting point |
| --- | --- |
| C[C@@H]1CN(C2CCN(C(=O)c3cccc(Cl)c3N)CC2)CCN1[C@@H](C)c1ccc(S(=O)(=O)c2ccc3c(c2)OCO3)nc1 | 184 to 186 °C |
| C[C@@H]1CN(C2CCN(C(=O)c3cccc4cccnc34)CC2)CCN1[C@@H](C)c1ccc(S(=O)(=O)c2ccc3c(c2)OCO3)nc1 | 174 °C |
| C[C@@H]1CN(C2CCN(C(=O)c3ccccc3N)CC2)CCN1[C@@H](C)c1ccc(S(=O)(=O)c2ccc3c(c2)OCO3)nc1 | 187 to 188 °C |
| C[C@@H]1CN(C2CCN(C(=O)c3cccc4c(F)cc(F)cc34)CC2)CCN1[C@@H](C)c1ccc(S(=O)(=O)c2ccc3c(c2)OCO3)nc1 | 172 to 174 °C |
| Cc1cccc(C)c1C(=O)N1CCC(N2CCN([C@@H](C)c3ccc(S(=O)(=O)c4ccc5c(c4)OCO5)nc3)[C@H](C)C2)CC1 | 165 °C |
| CNc1ccccc1C(=O)N1CCC(N2CCN(Cc3ccc(S(=O)(=O)c4cccc(C)c4)nc3)[C@H](C)C2)CC1 (as salt: HCl) | 144 to 148 °C (dec.) |
